Experimental findings from ChEMBL document CHEMBL4184302 (Bioorg Med Chem Lett, 2018) are described below.

Molecules are shown by their SMILES. The source made the active and inactive calls.

Assay [1] is described as follows: Inhibition of bacterial N-terminal His6-tagged VIM2 (27 to 266 residues) expressed in Escherichia coli BL21 DE3 pLysS cells using FC-5 as substrate pretreated for 10 mins followed by substrate addition measured every 60 secs by fluorescence assay. Further details: species or system Bacteria.
Assay [2] can be described thus: Inhibition of bacterial N-terminal His6-tagged NDM1 expressed in Escherichia coli BL21 DE3 pLysS cells using FC-5 as substrate pretreated for 10 mins followed by substrate addition measured every 60 secs by fluorescence assay. Further details: species or system Bacteria.
A short description of assay [3]: Inhibition of bacterial N-terminal His6-tagged TEM1 expressed in Escherichia coli BL21 DE3 pLysS cells using FC-5 as substrate pretreated for 10 mins followed by substrate addition measured every 60 secs by fluorescence assay. Further details: species or system Bacteria.
Assay [4] concerns Bacteria. Kind of assay: Competitive inhibition of bacterial N-terminal His6-tagged VIM2 (27 to 266 residues) expressed in Escherichia coli BL21 DE3 pLysS cells using varying levels of FC-5 as substrate by fluorescence assay.
The subject of assay [5] is Bacteria. The assay can be described thus: Reversible inhibition of bacterial N-terminal His6-tagged VIM2 (27 to 266 residues) expressed in Escherichia coli BL21 DE3 pLysS cells at 415 uM using FC-5 as substrate pretreated for 30 mins followed by substrate addition by jump-dilution method.
A short description of assay [6]: Binding affinity to bacterial N-terminal His6-tagged VIM2 (27 to 266 residues) expressed in Escherichia coli BL21 DE3 pLysS cells by isothermal calorimetric method. Further details: species or system Bacteria. In general terms: In ITC the heat of successive injections is recorded.
Assay [7] concerns Escherichia coli. The assay can be described thus: Potentiation of meropenem-induced antimicrobial activity against Escherichia coli BL21(DE3) harboring VIM-2 assessed as meropenem MIC at 50 uM measured after 16 to 20 hrs by microdilution broth method (reference value: 16 mg/L). Format: functional. A general note: Broth dilution looks for growth in wells or tubes with falling amounts of substance.

Assay [8] deals with Escherichia coli. Kind of assay: Potentiation of meropenem-induced antimicrobial activity against Escherichia coli BL21(DE3) harboring VIM-2 assessed as meropenem MIC at 100 uM measured after 16 to 20 hrs by microdilution broth method (reference value: 16 mg/L). The format is functional.
In assay [9] the test system is Escherichia coli. Kind of assay: Potentiation of meropenem-induced antimicrobial activity against Escherichia coli BL21(DE3) assessed as meropenem MIC at 100 uM measured after 16 to 20 hrs by microdilution broth method (reference value: <0.125 mg/L). The format is functional.
The test system of assay [10] is Escherichia coli. The assay can be described thus: Potentiation of meropenem-induced antimicrobial activity against Escherichia coli BL21(DE3) assessed as meropenem MIC at 50 uM measured after 16 to 20 hrs by microdilution broth method (reference value: <0.125 mg/L). The format is functional.
Assay [11] concerns Escherichia coli. Kind of assay: Potentiation of meropenem-induced antimicrobial activity against Escherichia coli BL21(DE3) harboring VIM-2 assessed as meropenem MIC at 25 uM measured after 16 to 20 hrs by microdilution broth method (reference value: 16 mg/L). The format is functional.
Assay [12] relates to Escherichia coli. The assay can be described thus: Potentiation of meropenem-induced antimicrobial activity against Escherichia coli BL21(DE3) assessed as meropenem MIC at 25 uM measured after 16 to 20 hrs by microdilution broth method (reference value: <0.125 mg/L). Format: functional.
Assay [13] has as its system Escherichia coli. The assay can be described thus: Potentiation of meropenem-induced antimicrobial activity against Escherichia coli BL21(DE3) harboring VIM-2 assessed as meropenem MIC at 10 uM measured after 16 to 20 hrs by microdilution broth method (reference value: 16 mg/L). The format is functional.
For assay [14], the system named is Escherichia coli. Kind of assay: Potentiation of meropenem-induced antimicrobial activity against Escherichia coli BL21(DE3) assessed as meropenem MIC at 10 uM measured after 16 to 20 hrs by microdilution broth method (reference value: <0.125 mg/L). Format: functional.
Assay [15] can be described thus: Inhibition of bacterial N-terminal His6-tagged VIM2 (27 to 266 residues) expressed in Escherichia coli BL21 DE3 pLysS cells using FC-5 as substrate pretreated for 10 mins followed by substrate addition by fluorescence assay. Further details: species or system Bacteria.
Assay [16] deals with Bacteria. The assay can be described thus: Reversible inhibition of bacterial N-terminal His6-tagged VIM2 (27 to 266 residues) expressed in Escherichia coli BL21 DE3 pLysS cells at 11 uM using FC-5 as substrate pretreated for 30 mins followed by substrate addition by jump-dilution method.

Regarding `O=C(O)[C@H](O)Cc1ccc(O)c(O)c1`, the IC50 (usually the concentration needed to halve the response being measured) in [1] was over 600 µM; in [2], over 600 µM; in assay [3], 189 µM. Also, the pIC50 (as a rule, the negative decadic logarithm of the IC50, by convention in mol/L) in assay [1] is under 3.2; in assay [2] it was under 3.2; in assay [3], 3.72.
`O=C(/C=C/c1ccc(O)c(O)c1)O[C@H](Cc1ccc(O)c(O)c1)C(=O)O` [ROSMARINIC ACID]: the IC50 was 41.5 µM in [1], over 600 µM in assay [2] and over 600 µM in assay [3]. For the same compound, the pIC50 is reported as 4.38 in [1], under 3.2 in [2] and under 3.2 in assay [3]. In addition, the inhibition result in assay [4] is “Dose-dependent effect”. For the same compound, the inhibition result in [5] was “Active”. Binding in assay [6] was characterised by a dissociation constant (Kd) of 10.2 µM. Further, the MIC (as a rule, the smallest concentration in the dilution series that meets the test's criterion for growth inhibition) in assay [7] is 8 µg/mL; in assay [8] it was 8 µg/mL; in assay [9], under 0.125 µg/mL; in assay [10], under 0.125 µg/mL; in [11], 16 µg/mL; in assay [12], under 0.125 µg/mL. In addition, the MIC in [13] was 16 µg/mL; in assay [14] it was under 0.125 µg/mL.
Consider `C[C@H](CS)C(=O)N1CCC[C@H]1C(=O)O` [CAPTOPRIL], for which the IC50 in assay [15] is 2.47 µM. The inhibition entry in [16] was “Active”.
On to `O=C(/C=C/c1ccc(O)c(O)c1/C=C/c1ccc(O)c(O)c1)O[C@H](Cc1ccc(O)c(O)c1)C(=O)O` [SALVIANOLIC ACID A], for which the IC50 in [1] is 27.2 µM; in [2], 160 µM; in [3] it was 34.3 µM. The pIC50 in assay [1] was 4.57; in assay [2], 3.75 to 3.79; in [3], 4.46. Also, the MIC in assay [7] is 4 µg/mL; in [8], 4 µg/mL; in assay [9] it was under 0.125 µg/mL; in assay [10], under 0.125 µg/mL; in assay [11], 16 µg/mL; in [12], under 0.125 µg/mL. Also, the MIC in [13] was 16 µg/mL; in assay [14], under 0.125 µg/mL.
Turning to `O=C(O)/C=C/c1ccc(O)c(O)c1` [CAFFEIC ACID], the IC50 in assay [1], in assay [2] and in assay [3] was over 600 µM in each case. In addition, the pIC50 in [1], in [2] and in [3] was under 3.2 each time.
